We go through one molecule from patent publication US20210275419A1, “Personal Care Compositions” (Colgate-Palmolive Company, priority 2020, published 2021).

This assay has as its system tyrosinase. Description: tyrosinase inhibitor screening kit (Sigma Aldrich, MAK 257 Kit). The assay is classed as biochemical. The following applies: Example 4; 0.156 wt. %. As to the method: The anti-tyrosinase activity of an exemplary composition of the present invention was compared to the anti-tyrosinase activity of individual short chain fatty acids. Assays were performed using a tyrosinase inhibitor screening kit from Sigma Aldrich; and following the manufacturer's protocol. The results of these experiments are described in Table 1 (below).
The anti-tyrosinase activity of an exemplary composition of the present invention was compared to the anti-tyrosinase activity of individual short chain fatty acids. Assays were performed using a tyrosinase inhibitor screening kit from Sigma Aldrich (MAK 257 Kit); and following the manufacturer's protocol. The results of these experiments are described in Table 4 (below). […]
Peels were diluted 1000× in buffer to prepare 0.1% working stock. […] The pH of all test samples and dilutions was measured before and after tyrosinase assay to exclude any effect of acid on the enzyme activity. […] LMP peels containing various concentrations of pyruvic acid at pH 2.5 (“R1 Peels”); LMP peels which were identically formulated to the R1 Peels, but with pH buffered to 3.6 (“R2 Peels”); and LMP′ peels which were identically formulated to the R2 Peels, other than the replacement of pyruvic acid with sodium pyruvate (“R3 Peels”), were all evaluated.

Each structure is given as a SMILES string.

With `O=C(O)C(O)c1ccccc1` (stereo not shown) [Mandelic Acid (M), Mandelic Acid], the “% Tyrosinase Inhibition” value worked out at 0.06%.
